Data on one compound can be found in patent publication US11944094B1, “Seed germination activator for control of broomrape” (KING FAISAL UNIVERSITY, priority 2023, dated 2024).

The assay relates to broomrape. Nature of the assay: Field experiment: reduction of broomrape biomass by BIP in irrigation water before planting host crops. Type of assay: in vivo, Orobanche. As for the experimental part: Testing was performed to determine the effect of BIP in different plant species as host crops (faba bean, tomato, and potato), soil type (sand soil and light clay soil), application time (late October and late February), and different climactic regions (Al Behera governate and Al Noubareia), using various concentrations of the substrate (100-500 ppm) to increase the inhibitory effect. […] Thus, BIP, when formulated and administered at 100-500 ppm with the irrigation water is an effective bio agent for controlling broomrape.

Compound `CCCCOC(=O)c1ccccc1C(=O)OCC(C)C` [BIP, butylisobutylphthalate] displayed a reduced broomrape biomass (300 ppm in irrigation water 8-10 days before cultivation, light clay soil for faba beans and potato, sand soil for faba bean, 20th of October) of 65%. In addition, the “reduction in broomrape biomass” value (400 ppm in irrigation water 10 days before planting, sand soil, 15th of February, tomato plants) is listed as 69%. Further, the “increase of inhibition effect relative to the activity observed at 400 ppm” value (BIP 500 ppm versus 400 ppm) is on record as at most 10%. The “% Reduction Broomrape Biomass” value came to 65.0% (Faba bean (Misr-3), cultivation October, light clay soil, BIP 300 ppm); 59.8% (Faba bean (Misr-3), cultivation October, sandy soil, BIP 300 ppm); 62.3% (Potato (Yarla), cultivation September, light clay soil, BIP 325 ppm); 71.8% (Tomato (Star Valley), cultivation February, sandy soil, BIP 400 ppm). Moreover, the reduction of broomrape (lower concentrations of BIP (100-200 ppm)) is recorded as 15%-18%.
